Tests used:
conscious rats = assay: ICV glucose or lactate infusion with pancreatic basal insulin clamp: plasma glucose and liver glucose production; format: in vivo, rat
Excerpt: We hypothesize that the hypothalamic sensing of glucose-derived pyruvate is a novel regulator of endogenous glucose production (GP). […] We propose that an increase in neuronal pyruvate levels is a hypothalamic signal of nutrient availability.
Long chain fatty acids in the brain decrease glucose production (GP) by the liver via activation of hypothalamus ATP-sensitive (KATP) channels. Here we tested whether (A) direct administration of glucose in the third cerebral ventricle can alter glucose production by the liver, and (B) whether this effect requires its metabolism in the TCA cycle.

high fat-fed rats [1] = assay: Central glucose or lactate in regular chow vs 3-day high fat diet-fed animals: glucose production; format: in vivo, rat; settings: central administration
Excerpt: The latter is an excellent model for diet-induced insulin resistance.

rats = assay: Food intake after central (ICV) glucose or lactate; format: in vivo, rat; settings: central administration
male Sprague-Dawley rats [2] = assay: ICV infusion: plasma triglycerides and metabolites under basal and pancreatic clamp conditions; format: in vivo, rat
Excerpt: Animal preparation. We studied 10-week-old male Sprague-Dawley rats. Rats underwent stereotaxic surgery to indwell single catheters in the third cerebral ventricle {intracerebroventricular (ICV)(Obici et al., 2001) or bilateral catheters into the mediobasal hypothalamus (Lam et al., 2005c). One week later, we placed indwelling catheters in the internal jugular vein and carotid artery for sampling and infusion during the in vivo experiments (Obici et al., 2001). Recovery from surgery was monitored by measuring daily food intake and weight gain for 4-5 days after surgery.
Infusion protocols. The in vivo infusion experiments lasted a total of 360 min, and the experiments were carried out in rats that had their food removed ˜5 h before the experiments. Thus, at the time of the experiment, the rats are in post-absorptive state since their stomach should be completely emptied by 5 h fasting. […] This ICV glucose protocol physiologically elevate hypothalamic glucose concentration by ˜70% as previously described (Lam et al., 2005b) and is similar to that induced by a doubling of the circulating glucose levels (Lam et al., 2005b). During the ICV infusions, we monitored the plasma metabolite levels under pre-infused (0 min), basal (180-240 min) and pancreatic clamp (300-360 min) conditions. […] A basal insulin-pancreatic clamp was performed in the final 2 h (240-360 min) of the study as previously described (Lam et al., 2005b). In brief, a continuous infusion of insulin (1 mU/kg.min) and somatostatin (3 μg/kg.min) was administered, and a variable infusion of a 25% glucose solution was started and periodically adjusted to clamp and maintain the plasma glucose concentration at ˜8 mM. […] To examine the time-dependent effects of ICY glucose on plasma triglycerides, ICY (5 μl/h) 2 mM D-glucose or mannitol was administrated for 210 min and plasma triglyceride levels were monitored at 0, 20, 60, 120, 180, 210 min. […] Plasma triglycerides were monitored under basal, pancreatic clamp and tyloxapol-treated conditions. At the end of the infusion experiments, rats were anesthetized and tissue samples were freeze-clamped in situ with aluminum tongs pre-cooled in liquid nitrogen. All tissue samples were stored at −80° C. for subsequent analysis.
Biochemical analyses. Plasma glucose concentrations were measured by the glucose oxidase method (Glucose Analyzer II, Beckman Instruments, Inc., Fullerton, Calif.). […] FFA concentrations were determined by an enzyme assay in accordance with the manufacturer's specifications (Waco Pure Chemical Industries. Osaka. Japan). Plasma insulin concentrations (with rat and porcine insulin standards) were measured by radioimmunoassay (RIA). Plasma adiponectin concentrations were measured by RIA (Linco Inc., Austin, Tex., USA). Liver triglycerides were measured as described (Muse et al., 2004).
Calculations. Statistical analysis was done by unpaired Student's t test or analysis of variance as appropriate. Data are presented as means±SEM. All values were collapsed into a single value for each animal prior to the calculation of mean. The time period 180-240 min was averaged for the basal and the time period 300-360 min was averaged for the clamp conditions.

hepatic VLDL secretion = assay: Lipoprotein (VLDL) secretion studies with tyloxapol; NMR particle size; format: in vivo, rat; settings: ICV glucose
Description: Lipoproteins secretion and particles concentration and size measurements. Tyloxapol (600 mg/kg; ˜1 min) was intravenously injected to inhibit endogenous lipoprotein lipase. This high dose of tyloxapol ensured complete inhibition of triglyceride clearance during VLDL secretion studies. Plasma samples were taken every 30 min for triglycerides analysis and for lipoprotein profiling. Plasma VLDL particles concentration and size were determined by nuclear magnetic resonance spectroscopy (lipoprofile-II test) at Liposcience as previously described (Otvos et al., 1991; 1992). This NMR lipoprofile-II test is based on the assumption that each plasma lipoprotein particle of a particular size gives its own characteristic lipid NMR signal. The intensity of the signal is also in proportion to the concentration of the particle. The diameter range for large, medium and small VLDL is >60 nm, 35-60 nm, and 27-35 nm, respectively.
Selective hepatic branch vagotomy. The surgeries were performed as described (Lam et al., 2005c).
Treatment with SCD1 ASO. Five and two days before the lipoprotein secretion studies, rats received a single intra-peritoneal injection of either SCD1 or scrambled (SCR) ASO (100 mg/kg of body weight). […] In a separate set of studies, rats received intra-portal injection of either SCD1 or SCR ASO (40 mg/kg of body weight) (Gutierrez-Juarez et al., 2006) three days before the lipoprotein secretion studies.
Portal oleate infusion. Chronic portal catheter was implanted and 7 days were allowed for rat recovery. Oleic acid (45 mM; dissolved in 45% HBP) was infused at a rate of 40 μl/h for 2.5 h (1 h before the 90 min lipoprotein secretion studies). This dose enabled the reconstitution of hepatic oleyl-CoA levels back to normal during portal SCD1 ASO (FIG. 11c) or ICV glucose studies (FIG. 11d).

high fat-fed rats [3] = assay: ICV glucose or lactate in high fat-fed rats: plasma triglycerides and VLDL secretion; format: in vivo, rat
Description: High fat feeding. Male Sprague-Dawley rats were fed a highly palatable high fat diet for three days. These rats developed hyperinsulinemia and hepatic insulin resistance (Morgan et al., 2004). […] In a separate set of studies, lipoprotein secretion studies were performed at the beginning of the ICV infusions.

male Sprague-Dawley rats [4] = settings: ICV 2 mM glucose, 5 μl/h (Lam et al., 2005b); cited from earlier work

Q: Which results are given for O=C[C@H](O)[C@@H](O)[C@H](O)[C@H](O)CO [glucose, D-glucose]?
A: circulating glucose levels (conscious rats; central (ICV) administration): lowered circulating glucose levels; gluconeogenesis and glycogenolysis (conscious rats; central administration): inhibited gluconeogenesis and glycogenolysis; liver glucose production, G6Pase flux and mRNA (conscious rats; central administration): reduced liver glucose production, G6Pase flux and mRNA; plasma glucose concentrations (conscious rats; four hour ICV infusion 5 μl/h (glucose 2 mM, lactate 5 mM), control 150±4): 133 ± 5 mg/dL; exogenous glucose infusion rate required to maintain euglycemia (conscious rats; pancreatic basal insulin clamps, central administration): increased exogenous glucose infusion rate; GP (glucose production) (conscious rats; pancreatic clamps, plasma glucose and insulin at basal, ICV infusion, control 10.4±0.1 (glucose), 11.7±0.6 (lactate)): 7.4 ± 0.3 mg/kg/min; glucose production (high fat-fed rats [1]; 3-day high fat diet-fed animals): severely impaired; glucose production (high fat-fed rats [1]; regular chow animals): lowered glucose production; food intake overnight (rats): inhibits food intake overnight; decrease in plasma triglyceride levels (male Sprague-Dawley rats [2]; ICV glucose, within 2 h, fraction): ⅓; maximal hypolipidemic effect (decrease in plasma triglycerides) (male Sprague-Dawley rats [2]; ICV glucose, within 3 h): ~75%; plasma free fatty acids levels (male Sprague-Dawley rats [2]; ICV infusion): did not modify plasma fatty acids levels; plasma triglyceride levels (male Sprague-Dawley rats [2]; ICV infusion (glucose 2 mM, L-lactate 5 mM)): markedly decreased the circulating levels of triglycerides; hepatic content of triglycerides (hepatic VLDL secretion): increased; rate of secretion of small (27-35 nm) and medium (35-60 nm) VLDL particles (hepatic VLDL secretion): tended to be higher; secretion of large triglyceride-rich VLDL particles (diameter >60 nm) (hepatic VLDL secretion): dramatically and selectively blunted the secretion of large triglyceride-rich VLDL particles; average size of the secreted VLDL particles (hepatic VLDL secretion; NMR spectroscopy): significant decrease in the average size of the secreted VLDL particles; rate of secretion of VLDL-triglycerides (hepatic VLDL secretion; tyloxapol 600 mg/kg): suppressed the rate of secretion of VLDL-triglycerides within 90 minutes; inhibitory effect on VLDL secretion in rats with resection of the hepatic branch of the vagus (hepatic VLDL secretion; preserved in sham-operated rats): abolished; rate of appearance of VLDL-triglycerides in plasma (high fat-fed rats [3]; HF rats, tyloxapol): failed to decrease the rate of appearance of VLDL-triglycerides in plasma; circulating levels of triglycerides (high fat-fed rats [3]; high fat-fed rats): failed to decrease the circulating levels of triglycerides; rise in hypothalamic glucose levels (male Sprague-Dawley rats [4]): ~70%

— US20110207694A1, “MAMMALIAN HYPOTHALAMIC NUTRIENT MODULATION OF GLUCOSE METABOLISM” (priority 2005, published 2011)
